According to ChEMBL document CHEMBL1127114, “Conformationally constrained analogues of diacylglycerol. 5. 2,5-Dideoxy-3-O-tetradecanoyl-D-galactono-1,4-lactone: A superior homologue of 3-O-tetradecanoyl-2-deoxy-L-ribonolactone with PK-C binding affinity” (Bioorg Med Chem Lett, 1993):

Experiments:
[1] = target: T1, Protein kinase C alpha type (Homo sapiens, UniProt P17252); assay: Inhibition of [3H]phorbol-12,13-dibutyrate binding to PK-C
[2] = target: T1, Protein kinase C alpha type; assay: Inhibition of [20-3H]phorbol-12,13-dibutyrate(PDBU) binding to purified PK-C alpha

| Compound | Ki [1] | Ki [2] |
| --- | --- | --- |
| CCCCCCCCCCCCCC(=O)O[C@@H]1CC(=O)O[C@H]1CO | 2.5 µM | 1.5 µM |
| CCCCCCCCCCCCCC(=O)O[C@@H]1CC(=O)O[C@H]1CCO | – | 0.88 µM |
